These are literature values, as cited in patent US20250041478A1, “FIBROUS POLYPEPTIDE-BASED BIOSCAFFOLD DELIVERY OF THERAPEUTICS TO NEURAL CELLS” (priority 2023, published 2025).

Counter-ions that a name gives are not always drawn.

The conditions of the data set: in vivo.

Regarding `CN(C)c1ccc(O)c2c1C[C@H]1C[C@H]3[C@H](N(C)C)C(O)=C(C(N)=O)C(=O)[C@@]3(O)C(O)=C1C2=O` [MH, minocycline hydrochloride], the plasma half-life is 11 to 23 h.
